# Source: patent US7183255B2, “Method for stabilizing blood pressure in hemodialysis subjects” (Intradialytic Pharmaceuticals, priority 2003, dated 2007)
# Several values for one entry are separate records, joined by “and”; a condition that tells them apart may be missing. Equal entries are not always repeated. Entries after “also recorded” stand apart in the source; their conditions may differ.
# Legend:
# Type in all cases: in vivo, human
# [1] = test system: patients with end-stage renal disease; assay: Systolic arterial pressure during AVP infusion in ESRD patients off dialysis (Example 1); settings: for systolic arterial blood pressure: ESRD, n=12, M ± SD
# Protocol: (§1) Healthy controls and patients with end-stage renal disease (e.g. defined as creatinine clearance of less than 10 ml/min) were studied. The studies were conducted on regularly scheduled hemodialysis days. The duration of hemodialysis remained the same as that prescribed prior to the study period. AVP or placebo (normal saline) was administered at a constant rate of 0.15, 0.3 or o.6 mU/kg/min through a venous line (controls) or through the venous limb of the dialysis circuit (hemodialysis patients). The patient's hemodialysis prescription remained unchanged except for the administration of AVP or placebo. Intradialytic hypotension was treated in the customary manner with the infusion of isotonic and hypertonic fluids.
# (§2) Serum AVP levels were determined by a radioimmunoassay technique. Blood pressure was measured with a cuff-type sphygmomanometer at 20 minute intervals.
# We discovered that patients with ERSD are hypersensitive to vasopressin's pressor action.
# The administration of exogenous AVP to patients with ESDR led to the discovery that these patients are hyper-responsive to the vascular effect of this hormone.
# [2] = test system: ESRD patients during hemodialysis; assay: Fluids needed to maintain blood pressure and weight lost during hemodialysis with AVP, 5 patients (Example 1, FIG. 6)
# Protocol: as §1
# AVP Administration allows more fluid removal. […] Dialysis during the administration of AVP resulted both in a decreased in the amount of intravenous fluids needed to maintain blood pressure and in a greater decrease in weight.
# The amount of fluids to maintain blood pressure during dialysis and the weight decrease were as given below: […]
# [3] = Plasma vasopressin during constant vasopressin infusion in normal subjects and ESRD patients (Example 3, FIG. 8); settings: normal subjects vs patients with ESRD
# Protocol: (§3) Plasma vasopressin concentration. Vasopressin in plasma was determined as previously described (Landry, D. W., H. R. Levin, et al. (1997). Circulation 95(5): 1122–5).
# (§4) Administration of vasopressin. In eight normal subjects and eight patients with ESRD off dialysis, 8-arginine vasopressin (vasopressin, American Pharmaceutical Partners, Schaumberg, Ill.) in normal saline was administered through an antecubital intravenous line. In eight patients with ESRD during hemodialysis, vasopressin was infused through the venous (blood return) limb of the dialysis circuit throughout the dialysis session at a rate of 0.15 or 0.3 mU·kg^−1·min^−1.
# Effect of vasopressin administration on its plasma concentration in normal subjects and Patients with ESRD. Because the effect of renal failure on the clearance of plasma vasopressin has remained unresolved (Shade, R. E. and L. Share (1976). Endocrinology 99(5): 1199–206; Benmansour, M., M. Rainfray, et al. (1982). Eur J Clin Invest 12(6): 475–80; Argent, N. B., R. Wilkinson, et al. (1992). Clin Sci (Lond) 83(5): 583–7), we administered a constant infusion of hormone to normal subjects and to patients with ESRD and measured plasma levels.
# [4] = Effect of hemodialysis on plasma vasopressin during constant vasopressin infusion (Example 3, Table 1); settings: for level at 1 h / level at 2 h / level at 0 h: human, plasma, iv, mean±SE; for level at 1 h: 1 h Dialysis; for level at 2 h: 2 h Dialysis; for level at 0 h: Start Dialysis
# Protocol: All patients were studied at regularly scheduled dialysis sessions. Patients underwent conventional hemodialysis with hollow fiber high flux polysulfone dialyzers on volumetric dialysis machines (Cobe Centrysystem 3, Gambro Renal Care Products, Inc., Lakewood, Colo.). Dialysis times were 3.5–4.5 hours. Blood flow was 300–400 mL/min and dialysate was delivered at 600 mL/min. The dialysis bath contained potassium, 2 mEq/L; calcium, 2.5 mEq/L; magnesium, 0.75 mEq/L; and bicarbonate, 40 mEq/L. In those patients who were prescribed dialysate sodium modeling and/or reduced dialysate temperature (35–37° C.) prior to the study, the parameters of these interventions were held constant throughout the study. Ultrafiltration was performed at a constant rate based on the target weight loss for that dialysis session. Oscillometric blood pressure and heart rate measurements were taken at 15–30 minute intervals.
# as §3, §4
# Effect of hemodialysis on plasma vasopressin concentration during constant infusion of hormone. To determine whether hemodialysis removes vasopressin from plasma (Shimamoto, K., T. Ando, et al. (1977). J Clin Endocrinol Metab 45(4): 818–20; Rosansky, S. J., R. Rhinehart, et al. (1991). Clin Nephrol 35(4): 158–64), we examined the effect of the procedure on the steady state plasma concentration of hormone during constant infusion. Vasopressin was infused for >1 hour to obtain a stable plasma concentration, at which time hemodialysis was initiated.
# [5] = Plasma AVP (radioimmunoassay) during constant AVP infusion, control vs hemodialysis periods (Example 1); set-up: plasma concentration of AVP at 2 h: unit not given here; settings: for plasma concentration of AVP at 2 h: ESRD patients, n=4
# Protocol: as §1, §2
# Plasma AVP is not dialyzed. To examine whether administration of exogenous AVP could prevent intradialytic hypotension, it was first determined whether the dialysis procedure removed the hormone from the blood. To determine this, AVP was administered at doses that had no effect in normal subjects and determined the plasma concentrations and pressure responses to AVP infusion in healthy control subjects and hemodialysis patients.
# To rule out the possibility that the lack of a rise in plasma AVP during dialysis was due to the fact that the newly secreted hormone was being dialyzed as was being secreted, we measured plasma AVP during the infusion of exogenous AVP to ERDS patients during control conditions and during hemodialysis.
# [6] = hemodialysis with AVP, individual patients 1-5
# [7] = 0.15 mU/kg · min^−1, infusion 0.15 mU · kg^−1 · min^−1
# [8] = 0.3 mU/kg · min^−1, infusion 0.3 mU · kg^−1 · min^−1
structure (smiles),measurement,setting,value
"NC(=O)CC[C@@H]1NC(=O)[C@H](Cc2ccccc2)NC(=O)[C@H](Cc2ccc(O)cc2)NC(=O)[C@@H](N)CSSC[C@@H](C(=O)N2CCC[C@H]2C(=O)N[C@@H](CCCN=C(N)N)C(=O)NCC(N)=O)NC(=O)[C@H](CC(N)=O)NC1=O [AVP, 8-arginine vasopressin]",systolic arterial blood pressure,[1]; 30 minutes of AVP infusion,162 ± 30
same,systolic arterial blood pressure,[1]; 60 minutes of AVP infusion,161 ± 32
same,systolic arterial blood pressure,[1]; 90 minutes of AVP infusion,161 ± 28
same,systolic arterial blood pressure,[1]; 120 minutes of AVP infusion,150 ± 31
same,systolic arterial blood pressure,[1]; before infusion (baseline),153 ± 28
same,pressor action of AVP,"[1]; patients with end-stage renal disease, same dose as in normal subjects (FIG. 3B)",increases blood pressure; also recorded: increased systolic arterial blood pressure
same,blood pressure stability and extra fluid removal,[2]; all patients on AVP (FIG. 6),the blood pressure was stable and extra fluid removal was possible
same,Fluids given to maintain blood pressure during dialysis,[2]; [6],0 mL
same,Weight lost,[2]; [6],2.8 Kg and 1.8 Kg and 2.2 Kg (2×) and 3.0 Kg
same,effect of renal failure on clearance of plasma vasopressin,[3],does not alter the clearance
same,level at 1 h,[4]; [7],0.025 ± 0.006 ng/mL
same,level at 2 h,[4]; [7],0.029 ± 0.006 ng/mL
same,level at 0 h,[4]; [7],0.026 ± 0.004 ng/mL
same,level at 1 h,[4]; [8],0.054 ± 0.006 ng/mL
same,level at 2 h,[4]; [8],0.052 ± 0.009 ng/mL
same,level at 0 h,[4]; [8],0.047 ± 0.006 ng/mL
same,change of plasma concentrations of vasopressin by hemodialysis,"[4]; steady state during constant infusion, hemodialysis initiated after >1 hour",not significantly changed
same,clearance of the hormone from the blood by hemodialysis,[5]; HD instituted during constant AVP infusion,does not clear the hormone from the blood
same,plasma concentration of AVP at 2 h,"[5]; constant infusion dose 0.15, control period",25.7
same,plasma concentration of AVP at 2 h,"[5]; constant infusion dose 0.15, hemodialysis period",28.9
same,plasma concentration of AVP at 2 h,"[5]; constant infusion dose 0.3, control period",47.4
same,plasma concentration of AVP at 2 h,"[5]; constant infusion dose 0.3, hemodialysis period",51.2
same,plasma concentration of AVP at 2 h,"[5]; constant infusion dose 0.6, control period",100.0
same,plasma concentration of AVP at 2 h,"[5]; constant infusion dose 0.6, hemodialysis period",104.6
same,plasma level of AVP,"[5]; infusion of 0.3 mU/kg/min, hemodialysis patients and control subjects",~40 pg/m
